# Experimental data: paper PMC6874683, “Pyrrothiogatain acts as an inhibitor of GATA family proteins and inhibits Th2 cell differentiation in vitro” (Scientific Reports, 2019)
# Tests used:
# [1] = test system: cytokine, GATA3 and Tbx21 mRNA; assay: Quantitative RT-PCR, total CD4+ T cells under IL-2 conditions; format: cell-based, mouse; settings: 30 µM, five days
# Experimental: C57BL/6 mice were purchased from Clea (Clea Japan, Inc., Tokyo, Japan). Total CD4^+ T cells isolated from mouse spleen were prepared using a FITC anti-mouse CD4 antibody (Cat#100510, RM4–5, BioLegend) and anti-FITC-microbeads (Cat#130-097-050, Miltenyi Biotec). Naive CD4^+ T cells (CD44^low, CD62L^high) were prepared using a MojoSort Mouse CD4 T cell Isolation Kit (Cat#480033), BioLegend). Biotinylated anti-CD44 (Cat#103004, IM7) and anti-CD25 antibodies (Cat#102004, PC61) were purchased from BioLegend. CD4^+ T cells (7.5 × 10^5) were stimulated using immobilized anti-TCR-β mAb (3 µg/mL, H57–597, BioLegend) plus an anti-CD28 mAb (1.0 µg/mL, cat#40–0281, TONBO Biosciences) for 2 days, and then, the cells were further expanded under similar conditions for an additional 3 days. IL-2 conditions: IL-2 (10 ng/mL, Pepro Tech); Th2 conditions: IL-2 (10 ng/mL, Pepro Tech), IL-4 (1 ng/mL, Pepro Tech), and anti-IFN-γ mAb (2.5 µg/mL, cat#40–731, TONBO Biosciences). Th1 conditions: IL-2 (10 ng/mL, Pepro Tech), IL-12 (1 ng/mL, Pepro Tech), and anti-IL-4 mAb (2.5 µg/mL, cat#40–731, TONBO Biosciences). The cultured cells were subjected to intracellular staining, ELISA assay, and RT-PCR. All animal experiments received approval from the Ehime University Administrative Panel for Animal Care. All animal care was conducted in accordance with the guidelines of Ehime University.
# Total RNA was isolated using the TRI Reagent (Molecular Research Center, Inc.). Reverse transcription and qRT-PCR were performed using the Transcriptor First Strand cDNA Synthesis Kit (Cat#04379012001, Roche) and FastStart Essential DNA Green Master (Cat#06402712001, Roche), according to the manufacturer’s protocols. qRT-PCR primers were used as follow; IL-4: 5′-GATCGGCATTTTCAACGAG-3′ (forward), 5′-[…]-3′ (reverse); IL-13: 5′-[…]-3′ (forward), 5′-[…]-3′ (reverse); IFN-γ: 5′-[…]-3′ (forward), 5′-[…]-3′ (reverse); IL-2: 5′-[…]-3′ (forward), 5′-[…]-3′ (reverse); Gata3: 5′-TTATCAAGCCCAAGCGAAG-3′ (forward), 5′-TGGTGGTGGTCTGACAGTT-3′ (reverse); and Tbx21: 5′-[…]-3′ (forward), 5′-[…]-3′ (reverse).
# (C) Quantitative RT-PCR analysis of the pyrrothiogatain-treated Th2 cells shown in panel (A).
# GATA3-SOX4 interaction = target: T1, GATA3-SOX4 interaction (Homo sapiens, UniProt P23771); assay: AlphaScreen binding assay of GATA3 and SOX4; settings: pyrrothiogatain 0 to 100 µM
# T1 construct: we synthesized the recombinant full-length GATA3 protein with an N-terminal FLAG tag using the wheat cell-free system; made in house; host or cells: wheat cell-free protein synthesis system (WEPRO1240 kit), BirA added for biotinylation
# Experimental: The GATA3 protein has been reported to directly interact with SOX4[22]. We next investigated whether pyrrothiogatain interrupted the interaction between GATA3 and SOX4. […] Interaction between biotin-labelled SOX4 and FLAG-GATA3 was analysed by the AlphaScreen system (Fig. 4B).
# Figure 4 Pyrrothiogatain inhibits the GATA3–SOX4 interaction. (A) Immunoblot analysis of biotin fused recombinant SOX4 (Biotin-SOX4) synthesized by the wheat cell-free system. The whole translational mixture (W) and the supernatant (S) were analysed using an anti-biotin antibody. (B) A schematic diagram of the binding assay to detect the direct binding between GATA3 and SOX4. When FLAG-tagged GATA3 binds with biotin fused SOX4, AlphaScreen beads generate a luminescent signal. (C) The binding assay of GATA3 and SOX4. The luminescence signals were detected by AlphaScreen technology. FLAG-DHFR was used as a control. (D) The inhibition assay of the binding of GATA3 and SOX4 in the presence of various concentrations of pyrrothiogatain (0 to 100 µM). The binding activity was calculated from the AlphaScreen signal. (E) The binding of recombinant GATA3 with SOX4 in the presence of pyrrothiogatain (0 to 100 µM) was assessed by immunoprecipitation assay. […] In (C,D), all data are expressed as individual points of three independent experiments with error bars indicating standard deviation.
# T1 sequence (P23771 whole entry): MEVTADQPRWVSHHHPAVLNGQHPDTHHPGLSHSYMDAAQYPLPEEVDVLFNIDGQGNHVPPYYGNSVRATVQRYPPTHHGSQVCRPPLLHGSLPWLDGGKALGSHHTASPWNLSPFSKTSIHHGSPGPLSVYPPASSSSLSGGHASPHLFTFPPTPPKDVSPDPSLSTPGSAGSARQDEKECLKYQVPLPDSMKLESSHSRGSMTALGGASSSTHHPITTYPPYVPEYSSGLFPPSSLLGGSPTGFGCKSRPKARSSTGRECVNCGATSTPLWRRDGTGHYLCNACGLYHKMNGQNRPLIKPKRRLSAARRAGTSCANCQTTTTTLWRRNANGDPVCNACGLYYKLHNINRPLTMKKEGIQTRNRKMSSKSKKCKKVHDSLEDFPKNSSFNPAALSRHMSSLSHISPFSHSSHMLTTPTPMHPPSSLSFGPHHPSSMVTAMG
smiles,measurement,setting,value
"Cc1ccc(C)n1-c1ccsc1C(=O)O [Pyrrothiogatain, 3-(2,5-dimethyl-1H-pyrrol-1-yl)thiophene-2-carboxylic acid]","Expression of GATA3, mRNA level",[1],not influenced
same,Expression of Tbx21,[1],increased
same,mRNA expression of IFN-γ (RT-qPCR),[1],Increased
same,"mRNA expression of IL-4, IL-5, IL-10, and IL-13 (RT-qPCR)",[1],decreased
same,IC50,GATA3-SOX4 interaction,95.2 µM
